Data set [1] in a line: Absorption and emission spectra of the coumarin amino acid. As to conditions: phenolate form, pH 7.4, 100 mM sodium phosphate buffer. Format: physicochemical. As for the experimental part: FIG. 2 provides absorption and emission spectra of L-(7-hydroxycoumarin-4-yl)ethylglycine. Both spectra were recorded at pH 7.4, 100 mM sodium phosphate buffer. At this pH, L-(7-hydroxycoumarin-4-yl)ethylglycine is present in both phenol and phenolate forms (in approximately a 2:1 ratio). The phenolate form has an extinction coefficient of 17000 at […] and a quantum yield of 0.63.

Data set [2] is described as follows: pH sensitivity of the absorption spectrum (pKa determination). The format is physicochemical. As to conditions: 60 μM in 100 mM sodium phosphate buffer, calculated from absorbance at 360 nm versus pH. Here is the method:
FIG. 7 provides an absorption spectrum of 60 μM coumarinyl amino acid L-(7-hydroxycoumarin-4-yl)ethylglycine in 100 mM sodium phosphate buffer.
The absorption spectrum of 60 μM coumarinyl amino acid 7-hydroxycoumarin-ethylglycine was measured in 100 mM sodium phosphate buffer. The absorbance of 360 nm increased while pH increased.

The test system of data set [3] is amber codon in the chloramphenicol acetyl transferase (CAT) gene. As to the kind of experiment: Chloramphenicol survival of synthetase clones (amber suppression in CAT gene). As to conditions: 60 hours at 37° C., GMML-agar. The format is cell-based, E. coli. Here is the method: Subsequently, this library was subjected to rounds of both positive and negative selections. In the positive selection, cell survival is dependent on the suppression of an amber codon introduced at a permissive site in the chloramphenicol acetyl transferase (CAT) gene when cells co-transformed with pBK-lib and MjtRNA^TyrCUA are grown in the presence of 1 mM unnatural amino acid (UAA) and chloramphenicol (Xie and Schultz, Methods (2005) 36:227-238). Positively selected clones are then transformed into cells containing MjtRNA^TyrCUA and a gene encoding the toxic barnase protein with three amber mutations introduced at permissive sites. These cells are grown in the absence of UAA to remove any clones that utilize endogenous amino acids (negative selection). These positive and negative selection are described in detail below.
Positive Selection—E. coli DH10B harboring the pREP(2)/YC plasmid was used as the host strain for the positive selection. Cells were transformed with the pBK-lib5 library, recovered in SOC for 1 hour, washed twice with glycerol minimal media with leucine (GMML) before plating on GMML-agar plates supplemented with kanamycin, chloramphenicol, tetracycline and 7-hydroxycoumarin-ethylglycine at 50 μg/mL, 60 μg/mL, 15 μg/mL and 1 mM respectively. […]

One may read the pKa as the negative logarithm of the acid dissociation constant. As for `N[C@@H](CCc1cc(=O)oc2cc(O)ccc12)C(=O)O` [L-(7-hydroxycoumarin-4-yl)ethylglycine], the extinction coefficient in data set [1] (at 360 nm) amounted to 17000 M⁻¹ cm⁻¹. Moreover, the quantum yield in data set [1] turned out to be 0.63. In data set [2], the pKa is recorded as 7.8.

B1: CouRS-D8 (protein)
chain: MDEFEMIKRNTSEIISEEELREVLKKDEKSAEIGFEPSGKIHLGHYLQIKKMIDLQNAGFDIIIHLGDLGAYLNQKGELDEIRKIGDYNKKVFEAMGLKAKYVYGSEYHLDKDYTLNVYRLALKTTLKRARRSMELIAREDENPKVAEVIYPIMQVNGIHYGGVDVAVGGMEQRKIHMLARELLPKKVVCIHNPVLTGLDGEGKMSSSKGNFIAVDDSPEEIRAKIKKAYCPAGVVEGNPIMEIAKYFLEYPLTIKRPEKFGGDLTVNSYEELESLFKNKELHPMDLKNAVAEELIKILEPIRKRL
modifications: L-(7-hydroxycoumarin-4-yl) ethylglycine aminoacyl-tRNA synthetase
B1: the figures for the “chloramphenicol concentration at which the clone survives” value in data set [3] (in the absence of 7-hydroxycoumarin-ethylglycine) and in data set [3] (in the presence of 1 mM 7-hydroxycoumarin-ethylglycine) were 20 µg/mL and 100 µg/mL, respectively.

(Values after US7807411B2, “Genetically encoded fluorescent coumarin amino acids” (The Scripps Research Institute, priority 2006, dated 2010).)
